Assay [1] addresses novel receptor obtainable from rat forebrain tissue. Kind of assay: [3H]-Compound A radioligand binding assay. As to conditions: competition with [3H]-Compound A (20 nM). How it is done:
WO 92/22293 (SmithKline Beecham) discloses compounds having anti-convulsant activity, including inter alia the compound trans-(+)-6-acetyl-4S-(4-fluorobenzoylamino)-3,4-dihydro-2,2-dimethyl-2H-1-benzopyran-3R-ol (hereinafter referred to as Compound A). […] The affinity of test compounds to the novel receptor site is assessed as follows.
Whole forebrain tissue is obtained from rats. The tissue is first homogenised in buffer (usually 50 mM Tris/HCl, pH 7.4). The homogenised tissue is washed by centrifugation and resuspension in the same buffer, then stored at −70° C. until used.
To carry out the radioligand binding assay, aliquots of tissue prepared as above (usually at a concentration of 1-2 mg protein/ml) are mixed with aliquots of [3H]-Compound A dissolved in buffer. The final concentration of [3H]-Compound A in the mixture is usually 20 nM. The mixture is incubated at room temperature for 1 hour. [3H]-Compound A bound to the tissue is then separated from unbound [3H]-Compound A by filtration through Whatman GF/B glass fibre filters. The filters are then washed rapidly with ice-cold buffer. The amount of radioactivity bound to the tissue trapped on the filters is measured by addition of liquid scintillation cocktail to the filters followed by counting in a liquid scintillation counter. […]

Assay [2] deals with electrically-induced seizures in mice. Description: Maximal electroshock seizure threshold (MEST) test. The class given is in vivo. To be noted: 10 mg/kg po, suspension in methyl cellulose, one hour post dosing. On the procedure: The maximal electroshock seizure threshold (MEST) test in rodents is particularly sensitive for detecting potential anticonvulsant properties^1. In this model, anticonvulsant agents elevate the threshold to electrically-induced seizures whilst proconvulsants lower the seizure threshold.
Mice (naive, male, Charles River, U.K. CD-1 strain, 25-30 g) are randomly assigned to groups of 10-20 and dosed orally or intraperitoneally at a dose volume of 10 ml/kg with various doses of compound (0.3-300 mg/kg) or vehicle. Mice are then subjected at 30 or 60 min post dose to a single electroshock (0.1 sec, 50 Hz, sine wave form) administered via corneal electrodes. The mean current and standard error required to induce a tonic seizure in 50% (CC50) of the mice in a particular treatment group is determined by the ‘up and down’ method of Dixon and Mood (1948)^2. Statistical comparisons between vehicle- and drug-treated groups are made using the method of Litchfield and Wilcoxon (1949)^3.
In control animals the CC50 is usually 14-18 mA. […] If a tonic convulsion does occur, then the current is decreased, and so on until all the animals in the group have been tested.
The percentage increase or decrease in CC50 for each group compared to the control is calculated. […]
For orientation: In the maximal electroshock model the usual endpoint is tonic extension of the hind limbs.

This note sets out measurements from patent US6395759B1, “Substituted benzamide derivatives and pharmaceutical compositions containing them” (SmithKline Beecham p.l.c., priority 1999, dated 2002).

The structures appear in SMILES notation.

Turning to `COc1cc(C(C)(C)C)ccc1C(=O)Nc1cccc(C2CCCN2)c1` (racemic) [Example 1, (±)-4-tert-Butyl-2-methoxy-N-(3-pyrrolidin-2-yl-phenyl)-benzamide, monohydroclhloride], the pKi value result in assay [1] is “greater than 7”. Moreover, the “increase in seizure threshold (CC50) compared to control” value in assay [2] stood at 53%.
